# Assay results reported in patent publication US11878975B2, “Substituted indole compounds useful as TLR inhibitors” (BRISTOL-MYERS SQUIBB COMPANY, priority 2017, dated 2024).
# How the values were obtained:
# Type in all cases: cell-based
# human TLR8 = biological target: T1, human TLR8 (Homo sapiens, UniProt Q9NR97); assay: TLR8 inhibition reporter assay (HEK-Blue cells, SEAP reporter, R848 stimulation); conditions: HEK-Blue cells overexpressing human TLR8, SEAP reporter, R848 15.9 μM
# T1 construct: host or cells: HEK-Blue cells
# T1 sequence (Q9NR97 27-1041): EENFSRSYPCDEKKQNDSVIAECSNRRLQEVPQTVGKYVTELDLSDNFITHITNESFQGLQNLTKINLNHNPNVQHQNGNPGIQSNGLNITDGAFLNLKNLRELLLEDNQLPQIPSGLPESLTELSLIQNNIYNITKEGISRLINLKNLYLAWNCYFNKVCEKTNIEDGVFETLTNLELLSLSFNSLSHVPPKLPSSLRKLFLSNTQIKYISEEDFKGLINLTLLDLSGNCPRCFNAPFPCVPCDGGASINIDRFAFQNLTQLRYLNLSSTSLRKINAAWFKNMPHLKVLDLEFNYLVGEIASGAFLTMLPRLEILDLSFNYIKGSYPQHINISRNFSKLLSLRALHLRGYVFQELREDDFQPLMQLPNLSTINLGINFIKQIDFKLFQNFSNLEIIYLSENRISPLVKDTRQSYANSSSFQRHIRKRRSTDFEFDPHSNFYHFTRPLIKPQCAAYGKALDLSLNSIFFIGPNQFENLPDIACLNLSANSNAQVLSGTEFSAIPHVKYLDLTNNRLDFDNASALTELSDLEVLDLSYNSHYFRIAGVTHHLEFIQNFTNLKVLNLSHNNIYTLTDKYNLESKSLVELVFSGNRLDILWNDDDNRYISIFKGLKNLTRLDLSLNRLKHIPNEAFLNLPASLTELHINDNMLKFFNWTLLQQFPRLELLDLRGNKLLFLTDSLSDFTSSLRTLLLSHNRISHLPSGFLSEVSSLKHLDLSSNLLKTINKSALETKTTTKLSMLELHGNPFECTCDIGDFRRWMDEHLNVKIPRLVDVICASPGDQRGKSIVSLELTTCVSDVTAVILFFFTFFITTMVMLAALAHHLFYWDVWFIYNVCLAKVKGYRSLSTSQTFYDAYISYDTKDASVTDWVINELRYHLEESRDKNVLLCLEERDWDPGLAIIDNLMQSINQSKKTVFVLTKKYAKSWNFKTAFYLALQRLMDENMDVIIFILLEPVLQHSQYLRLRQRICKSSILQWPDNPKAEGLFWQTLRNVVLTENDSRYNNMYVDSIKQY
# How it was run: (§1)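 Percent inhibition is derived from SEAP signal, scaled between agonist-plus-DMSO wells and wells given a known inhibitor. Test compounds (0.05 nM–50 μM) are pre-incubated 30 min at room temperature before agonist addition (TLR7: 7.5 μM gardiquimod; TLR8: 15.9 μM R848; TLR9: 5 nM ODN2006) and 22 h culture at 37 °C.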
# human TLR7 = biological target: T2, human TLR7 (Homo sapiens, UniProt Q9NYK1); assay: TLR7 inhibition reporter assay (HEK-Blue cells, SEAP reporter, gardiquimod stimulation); conditions: HEK-Blue cells overexpressing human TLR7, SEAP reporter, gardiquimod 7.5 μM
# T2 construct: host or cells: HEK-Blue cells
# T2 sequence (Q9NYK1 27-1049): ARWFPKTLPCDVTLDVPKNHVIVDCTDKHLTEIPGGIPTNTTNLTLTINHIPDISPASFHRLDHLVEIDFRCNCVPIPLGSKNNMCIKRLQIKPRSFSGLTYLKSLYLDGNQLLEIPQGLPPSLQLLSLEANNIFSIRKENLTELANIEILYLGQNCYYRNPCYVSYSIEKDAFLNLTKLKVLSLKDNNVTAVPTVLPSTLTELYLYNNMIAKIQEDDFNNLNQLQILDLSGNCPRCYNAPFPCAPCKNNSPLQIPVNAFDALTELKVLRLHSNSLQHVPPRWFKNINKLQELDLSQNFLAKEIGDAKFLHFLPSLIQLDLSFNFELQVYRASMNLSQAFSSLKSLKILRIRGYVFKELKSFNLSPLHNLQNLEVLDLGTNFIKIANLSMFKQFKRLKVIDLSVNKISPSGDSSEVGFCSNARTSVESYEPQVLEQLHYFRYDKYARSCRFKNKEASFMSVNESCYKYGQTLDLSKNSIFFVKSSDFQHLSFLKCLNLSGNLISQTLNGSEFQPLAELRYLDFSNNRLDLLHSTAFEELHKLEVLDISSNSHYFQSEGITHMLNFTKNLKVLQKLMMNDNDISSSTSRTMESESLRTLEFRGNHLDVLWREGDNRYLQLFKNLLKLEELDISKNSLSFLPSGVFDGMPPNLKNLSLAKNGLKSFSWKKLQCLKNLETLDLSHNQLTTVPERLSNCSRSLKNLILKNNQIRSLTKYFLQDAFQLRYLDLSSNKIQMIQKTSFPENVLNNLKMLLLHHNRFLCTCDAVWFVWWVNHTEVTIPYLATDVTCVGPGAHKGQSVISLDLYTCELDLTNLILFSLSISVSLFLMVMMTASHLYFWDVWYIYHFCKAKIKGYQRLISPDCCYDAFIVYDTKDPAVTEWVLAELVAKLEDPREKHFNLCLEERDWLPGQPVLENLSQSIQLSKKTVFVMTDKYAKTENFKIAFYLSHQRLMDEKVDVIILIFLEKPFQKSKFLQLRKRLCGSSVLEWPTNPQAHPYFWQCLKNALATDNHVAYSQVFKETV
# How it was run: as §1
# human TLR9 = biological target: T3, human TLR9 (Homo sapiens, UniProt Q9NR96); assay: TLR9 inhibition reporter assay (HEK-Blue cells, SEAP reporter, ODN2006 stimulation); conditions: HEK-Blue cells overexpressing human TLR9, SEAP reporter, ODN2006 5 nM
# T3 construct: host or cells: HEK-Blue cells
# T3 sequence (Q9NR96 26-1032): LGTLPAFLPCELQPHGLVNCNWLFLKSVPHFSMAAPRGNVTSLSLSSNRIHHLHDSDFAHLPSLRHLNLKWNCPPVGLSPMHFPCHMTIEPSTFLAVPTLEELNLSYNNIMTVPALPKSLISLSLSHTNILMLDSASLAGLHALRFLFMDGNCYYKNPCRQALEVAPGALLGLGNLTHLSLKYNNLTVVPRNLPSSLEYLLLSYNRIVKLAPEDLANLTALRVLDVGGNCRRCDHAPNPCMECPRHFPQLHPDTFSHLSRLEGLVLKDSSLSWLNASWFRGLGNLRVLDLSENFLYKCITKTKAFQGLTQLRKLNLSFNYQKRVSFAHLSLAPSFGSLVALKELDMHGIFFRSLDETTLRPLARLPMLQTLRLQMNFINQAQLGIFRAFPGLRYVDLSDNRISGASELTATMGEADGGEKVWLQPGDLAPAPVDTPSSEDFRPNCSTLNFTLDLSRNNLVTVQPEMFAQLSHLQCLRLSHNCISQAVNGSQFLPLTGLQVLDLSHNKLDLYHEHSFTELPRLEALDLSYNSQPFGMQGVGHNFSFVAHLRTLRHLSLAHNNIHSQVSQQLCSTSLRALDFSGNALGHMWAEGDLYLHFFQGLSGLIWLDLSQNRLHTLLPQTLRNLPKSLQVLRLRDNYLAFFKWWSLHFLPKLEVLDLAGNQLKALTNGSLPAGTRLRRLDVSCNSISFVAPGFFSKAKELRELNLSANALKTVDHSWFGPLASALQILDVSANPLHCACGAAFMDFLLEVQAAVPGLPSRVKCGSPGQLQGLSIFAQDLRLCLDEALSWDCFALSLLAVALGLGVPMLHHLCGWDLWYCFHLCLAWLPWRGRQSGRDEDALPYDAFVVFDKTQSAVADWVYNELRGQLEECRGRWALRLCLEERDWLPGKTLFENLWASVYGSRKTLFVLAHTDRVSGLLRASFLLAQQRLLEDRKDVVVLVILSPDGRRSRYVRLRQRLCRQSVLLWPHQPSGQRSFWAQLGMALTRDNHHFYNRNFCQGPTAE
# How it was run: as §1
IC50 (human TLR8),IC50 (human TLR7),IC50 (human TLR9),Compound
0.94 nM,32 nM,1010 nM,Cc1cc(-c2[nH]c3ccc(C4CN(C(C)C)CCO4)cc3c2C(C)C)cc(C)n1 (stereo not drawn) [Example 305]
2.6 nM,1 nM,4100 nM,Cc1c(-c2[nH]c3ccc(C4CCC(N(C)C)CC4)cc3c2C(C)C)cn2ncnc2c1C (stereo not drawn) [Example 111]
3.8 nM,3 nM,3800 nM,"Cc1c(-c2[nH]c3ccc(C4CCC(N5CCOCC5)CC4)cc3c2C(C)C)cn2ncnc2c1C (single isomer, unassigned) [Example 93]"
2.6 nM,2 nM,5220 nM,"Cc1c(-c2[nH]c3ccc(C4CCC(NC5COC5)CC4)cc3c2C(C)C)cn2ncnc2c1C (single isomer, unassigned) [Example 86]"
1.9 nM,0.53 nM,1300 nM,COc1cc(-c2[nH]c3ccc(C4CCCN(C)C4)cc3c2C(C)C)cn2ncnc12 (stereo not drawn) [Example 241]
13 nM,13 nM,5790 nM,Cc1c(-c2[nH]c3ccc(C4CCCN(CC(=O)N(C)C)C4)cc3c2C(C)C)cn2ncnc2c1C (stereo not drawn) [Example 230]
5.8 nM,4 nM,3870 nM,CCCN1CC(c2ccc3[nH]c(-c4cn5cnnc5c(C)c4C)c(C(C)C)c3c2)C1 [Example 546]
4.6 nM,3 nM,23700 nM,Cc1c(-c2[nH]c3ccc(C4CCC(NC(=O)CN(C)C)CC4)cc3c2C(C)C)cn(C)c(=O)c1C (stereo not drawn) [Example 472]
345 nM,56 nM,43900 nM,Cc1cc(-c2[nH]c3ccc(C4CCCN(C(=O)C5(C)COC5)C4)cc3c2C(C)C)cc(C)n1 (stereo not drawn) [Example 203]
2.1 nM,13 nM,457 nM,CC(C)c1c(-c2ccnc3[nH]ncc23)[nH]c2ccc(/C=C/C3CCNCC3)cc12 [Example 422]
1.1 nM,0.37 nM,3420 nM,"COc1cc(-c2[nH]c3ccc(C4CCC(N)CC4)cc3c2C(C)C)cn2ncnc12 (single isomer, unassigned) [Example 2, 4-(3-isopropyl-2-(8-methoxy-[1,2,4]triazolo[1,5-a]pyridin-6-yl)-1H-indol-5-yl) cyclohexanamine]"
396 nM,24 nM,37000 nM,"COc1cc(-c2[nH]c3ccc(C4CCC(NCC(F)(F)F)CC4)cc3c2C(C)C)cn2ncnc12 (single isomer, unassigned) [Example 110]"
6.9 nM,8 nM,116 nM,Cc1cc(-c2[nH]c3ccc(C4CCCN(Cc5c[nH]c(C)n5)C4)cc3c2C(C)C)cc(C)n1 (stereo not drawn) [Example 247]
0.61 nM,0.59 nM,6440 nM,Cc1c(-c2[nH]c3ccc(C4CC(NC(=O)CN(C)C)C4)cc3c2C(C)C)cn2ncnc2c1C (stereo not drawn) [Example 578]
74 nM,108 nM,> 50000 nM,Cc1cc(-c2[nH]c3ccc(CCN4CCS(=O)(=O)CC4)cc3c2C(C)C)cn(C)c1=O [Example 402]
16 nM,34 nM,2080 nM,CC(C)c1c(-c2ccnc3[nH]ncc23)[nH]c2ccc(C(C)C3CCNCC3)cc12 (stereo not drawn) [Example 423]
4.3 nM,57 nM,> 50000 nM,Cc1c(-c2[nH]c3ccc(C4CC(NC5COC5)C4)cc3c2C(C)C)cn(C)c(=O)c1C (stereo not drawn) [Example 496]
9.2 nM,34 nM,10300 nM,Cc1c(-c2[nH]c3ccc(C4CN(C(C)C)C4)cc3c2C(C)C)cn(C)c(=O)c1C [Example 482]
16 nM,4 nM,1480 nM,COc1cc(-c2[nH]c3ccc(CCC4CNC4)cc3c2C(C)C)cn2ncnc12 [Example 440]
2.1 nM,0.76 nM,2010 nM,"COc1cc(-c2[nH]c3ccc(C4CCCN(CC(C)(C)O)C4)cc3c2C(C)C)cn2ncnc12 (stereo not drawn) [Example 248, 1-(3-(3-isopropyl-2-(8-methoxy-[1,2,4]triazolo[1,5-a]pyridin-6-yl)-1H-indol-5-yl)piperidin-1-yl)-2-methylpropan-2-ol]"
15 nM,49 nM,16200 nM,Cc1c(-c2[nH]c3ccc(CC4CCCN4CCS(C)(=O)=O)cc3c2C(C)C)cn2cnnc2c1C (stereo not drawn) [Example 428]
7.9 nM,7 nM,8960 nM,COc1cc(-c2[nH]c3ccc(CCN4CCOCC4)cc3c2C(C)C)cn2ncnc12 [Example 411]
21 nM,1 nM,6590 nM,Cc1c(-c2[nH]c3ccc(C4CC5CNCC5C4)cc3c2C(C)C)cn2ncnc2c1C (stereo not drawn) [Example 506]
9.2 nM,2 nM,2120 nM,Cc1c(-c2[nH]c3ccc(C4CC5CN(C)CC5C4)cc3c2C(C)C)cn2cnnc2c1C (stereo not drawn) [Example 559]
19 nM,3 nM,8170 nM,Cc1cc(-c2[nH]c3ccc(C4CN(CCS(C)(=O)=O)C4)cc3c2C(C)C)cn2ncnc12 [Example 264]
